Experimental data as given in patent publication US6358885B1, “Substituted phenylheterocyclic herbicides” (Mississippi State University, priority 1992, dated 2002).

Tested on: speedwell
Assay: Test C preemergence/postemergence greenhouse plant response rating 0 to 100
Type: in vivo, Veronica persica
Conditions: for Plant response rating Speedwell: 0 to 100 scale
Excerpt: The compounds evaluated in this test were formulated in a non-phytoxic solvent and applied to the soil surface before plant seedlings emerged (preemergence application), to water that covered the soil surface (flood application), and to plants that were in the one-to-four leaf stage (postemergence application). A sandy loam soil was used for the preemergence and postemergence tests, while a silt loam soil was used in the flood test. Water depth was approximately 2.5 cm for the flood test and was maintained at this level for the duration of the test. Plant species in the preemergence and postemergence tests consisted of barley (Hordeum vulgare), bedstraw (Galium aparine), blackgrass (Alopecurus myosuroides), chickweed (Stellaria media), corn (Zea mays), cotton (Gossypium hirsutum), crabgrass (Digitaria sanguinalis), downy brome (Bromus tectorum), giant foxtail (Setaria faberii), lambsquarters (Chenopodium album), morningglory (Ipomoea hederacea), pigweed ([…]), rape (Brassica napus), ryegrass (Lolium multiflorum), sorghum (Sorghum bicolor), soybean (Glycine max), speedwell (Veronica persica), sugar beet (Beta vulgaris), velvetleaf (Abutilon theophrasti), wheat (Triticum aestivum), wild buckwheat (Polygonum convolvulus), and wild oat (Avena fatua). All plant species were planted one day before application of the compound for the preemergence portion-of this test. Plantings of these species were adjusted to produce plants of appropriate size for the post-emergence portion of the test. […] All plant species were grown using normal greenhouse practices. Visual evaluations of injury expressed on treated plants, when compared to untreated controls, were recorded approximately fourteen to twenty one days after application of the test compound. […] A dash (-) response means no test result.

CC(C)Oc1cc(-c2nn3c(c2Br)CCCC3)c(F)cc1Cl [Compound 38]
Plant response rating (0 to 100), Speedwell (PREEMERGENCE, Rate 1 g/ha): 0
Plant response rating (0 to 100), Speedwell (PREEMERGENCE, Rate 4 g/ha): 0
Plant response rating (0 to 100), Speedwell (Rate 16 g/ha, PREEMERGENCE): 0

CC(C)OC(=O)COc1cc(-c2nn3c(c2Cl)CCCC3)c(F)cc1Cl [Compound 39]
Plant response rating Speedwell (POSTEMERGENCE, 62 g/ha): 95
Plant response rating Speedwell (POSTEMERGENCE, 125 g/ha): 100
Plant response rating (0 to 100), Speedwell (Rate 16 g/ha, POSTEMERGENCE): 90
Plant response rating (0 to 100), Speedwell (Rate 31 g/ha, POSTEMERGENCE): 90

C=C(Cl)COc1cc(-c2nn3c(c2Cl)CCCC3)c(F)cc1Cl [Compound 40]
Plant response rating Speedwell (POSTEMERGENCE, 62 g/ha): 100
Plant response rating Speedwell (POSTEMERGENCE, 125 g/ha): 100
Plant response rating (0 to 100), Speedwell (Rate 16 g/ha, POSTEMERGENCE): 90
Plant response rating (0 to 100), Speedwell (Rate 31 g/ha, POSTEMERGENCE): 95

C=CCN1C(=O)COc2cc(F)c(-c3nn4c(c3Br)CCCC4)cc21 [Compound 41]
Plant response rating Speedwell (POSTEMERGENCE, 62 g/ha): 100
Plant response rating Speedwell (POSTEMERGENCE, 125 g/ha): 100
Plant response rating (0 to 100), Speedwell (Rate 16 g/ha, POSTEMERGENCE): 100
Plant response rating (0 to 100), Speedwell (Rate 31 g/ha, POSTEMERGENCE): 100

CCOC(=O)COc1cc(-c2nn3c(c2Cl)CCCC3)c(F)cc1Cl [Compound 42]
Plant response rating Speedwell (POSTEMERGENCE, 62 g/ha): 100
Plant response rating Speedwell (POSTEMERGENCE, 125 g/ha): 100
Plant response rating (0 to 100), Speedwell (Rate 16 g/ha, POSTEMERGENCE): 95
Plant response rating (0 to 100), Speedwell (Rate 31 g/ha, POSTEMERGENCE): 100

Fc1cc(Cl)c(OCCCl)cc1-c1nn2c(c1Cl)CCCC2 [Compound 49]
Plant response rating Speedwell (POSTEMERGENCE, 62 g/ha): 100
Plant response rating Speedwell (POSTEMERGENCE, 250 g/ha): 100
Plant response rating (0 to 100), Speedwell (POSTEMERGENCE, Rate 4 g/ha): 85
Plant response rating (0 to 100), Speedwell (Rate 16 g/ha, POSTEMERGENCE): 100

C#CC(C)N1C(=O)COc2cc(F)c(-c3nn4c(c3Cl)CCCC4)cc21 (stereo not drawn) [Compound 50]
Plant response rating Speedwell (POSTEMERGENCE, 62 g/ha): 100
Plant response rating (0 to 100), Speedwell (POSTEMERGENCE, Rate 1 g/ha): 0
Plant response rating (0 to 100), Speedwell (POSTEMERGENCE, Rate 4 g/ha): 70
Plant response rating (0 to 100), Speedwell (Rate 16 g/ha, POSTEMERGENCE): 100

Fc1cc(Cl)ccc1-c1nn2c(c1Br)CCCC2 [Compound 52]
Plant response rating Speedwell (POSTEMERGENCE, 125 g/ha): 100
Plant response rating Speedwell (PREEMERGENCE, 125 g/ha): 100
Plant response rating (0 to 100), Speedwell (PREEMERGENCE, Rate 2 g/ha): 0
Plant response rating (0 to 100), Speedwell (Rate 8 g/ha, POSTEMERGENCE): 30
Plant response rating (0 to 100), Speedwell (Rate 8 g/ha, PREEMERGENCE): 0
Plant response rating (0 to 100), Speedwell (Rate 31 g/ha, POSTEMERGENCE): 100
Plant response rating (0 to 100), Speedwell (Rate 31 g/ha, PREEMERGENCE): 20

CCN1C(=O)COc2cc(F)c(-c3nn4c(c3Cl)CCCC4)cc21 [Compound 54]
Plant response rating Speedwell (POSTEMERGENCE, 62 g/ha): 100
Plant response rating (0 to 100), Speedwell (POSTEMERGENCE, Rate 1 g/ha): 100
Plant response rating (0 to 100), Speedwell (POSTEMERGENCE, Rate 4 g/ha): 100
Plant response rating (0 to 100), Speedwell (PREEMERGENCE, Rate 1 g/ha): 50
Plant response rating (0 to 100), Speedwell (PREEMERGENCE, Rate 4 g/ha): 100
Plant response rating (0 to 100), Speedwell (Rate 16 g/ha, POSTEMERGENCE): 100
Plant response rating (0 to 100), Speedwell (Rate 16 g/ha, PREEMERGENCE): 100

COCN1C(=O)COc2cc(F)c(-c3nn4c(c3Cl)CCCC4)cc21 [Compound 55]
Plant response rating Speedwell (POSTEMERGENCE, 62 g/ha): 100
Plant response rating (0 to 100), Speedwell (POSTEMERGENCE, Rate 1 g/ha): 60
Plant response rating (0 to 100), Speedwell (POSTEMERGENCE, Rate 4 g/ha): 100
Plant response rating (0 to 100), Speedwell (Rate 16 g/ha, POSTEMERGENCE): 100

C#CCN1C(=O)COc2cc(F)c(-c3nn4c(c3Br)CCCC4)cc21 [Compound 56]
Plant response rating Speedwell (POSTEMERGENCE, 62 g/ha): 100
Plant response rating (0 to 100), Speedwell (POSTEMERGENCE, Rate 1 g/ha): 100
Plant response rating (0 to 100), Speedwell (POSTEMERGENCE, Rate 4 g/ha): 100
Plant response rating (0 to 100), Speedwell (Rate 16 g/ha, POSTEMERGENCE): 100

COCOc1cc(-c2nn3c(c2Cl)CCCC3)c(F)cc1Cl [Compound 58]
Plant response rating Speedwell (POSTEMERGENCE, 125 g/ha): 100
Plant response rating (0 to 100), Speedwell (POSTEMERGENCE, Rate 2 g/ha): 40
Plant response rating Speedwell (PREEMERGENCE, 125 g/ha): 100
Plant response rating (0 to 100), Speedwell (PREEMERGENCE, Rate 2 g/ha): 0
Plant response rating (0 to 100), Speedwell (Rate 8 g/ha, POSTEMERGENCE): 70
Plant response rating (0 to 100), Speedwell (Rate 8 g/ha, PREEMERGENCE): 100
Plant response rating (0 to 100), Speedwell (Rate 31 g/ha, POSTEMERGENCE): 100
Plant response rating (0 to 100), Speedwell (Rate 31 g/ha, PREEMERGENCE): 100

CCOCOc1cc(-c2nn3c(c2Cl)CCCC3)c(F)cc1Cl [Compound 59]
Plant response rating Speedwell (POSTEMERGENCE, 125 g/ha): 100
Plant response rating (0 to 100), Speedwell (POSTEMERGENCE, Rate 2 g/ha): 100
Plant response rating Speedwell (PREEMERGENCE, 125 g/ha): 100
Plant response rating (0 to 100), Speedwell (Rate 8 g/ha, POSTEMERGENCE): 100
Plant response rating (0 to 100), Speedwell (Rate 8 g/ha, PREEMERGENCE): 50
Plant response rating (0 to 100), Speedwell (Rate 31 g/ha, POSTEMERGENCE): 100
Plant response rating (0 to 100), Speedwell (Rate 31 g/ha, PREEMERGENCE): 100

CCCN1C(=O)COc2cc(F)c(-c3nn4c(c3Br)CCCC4)cc21 [Compound 63]
Plant response rating Speedwell (PREEMERGENCE, 250 g/ha): 100
Plant response rating (0 to 100), Speedwell (PREEMERGENCE, Rate 4 g/ha): 0
Plant response rating (0 to 100), Speedwell (Rate 16 g/ha, PREEMERGENCE): 90

C#CC(C)Oc1cc(-c2nn3c(c2Br)CCCC3)c(F)cc1Cl (stereo not drawn) [Compound 66]
Plant response rating Speedwell (POSTEMERGENCE, 62 g/ha): 100
Plant response rating Speedwell (POSTEMERGENCE, 250 g/ha): 100
Plant response rating (0 to 100), Speedwell (POSTEMERGENCE, Rate 4 g/ha): 100
Plant response rating Speedwell (PREEMERGENCE, 250 g/ha): 100
Plant response rating (0 to 100), Speedwell (PREEMERGENCE, Rate 4 g/ha): 0
Plant response rating (0 to 100), Speedwell (Rate 16 g/ha, POSTEMERGENCE): 100
Plant response rating (0 to 100), Speedwell (Rate 16 g/ha, PREEMERGENCE): 90

COCN1C(=O)COc2cc(F)c(-c3nn4c(c3Br)CCCC4)cc21 [Compound 67]
Plant response rating Speedwell (POSTEMERGENCE, 62 g/ha): 100
Plant response rating (0 to 100), Speedwell (POSTEMERGENCE, Rate 1 g/ha): 90
Plant response rating (0 to 100), Speedwell (POSTEMERGENCE, Rate 4 g/ha): 100
Plant response rating (0 to 100), Speedwell (Rate 16 g/ha, POSTEMERGENCE): 100
